From article PMC4786016 (Environmental science & technology, 2015)
Structures can show the parent of a compound that is named as a salt. Where two headings read alike, the source gives them in different places.

Key:
human PPARγ1 [1] = target: T1, human PPARγ1 (Homo sapiens, UniProt P37231)
HEK293 cells = test: Alamar Blue cell viability assay; conditions: high doses
human PPARγ1 [2] = target: T1, human PPARγ1; test: GeneBLAzer PPARγ1 non-DA reporter gene assay; conditions: for Emax: HEK293, read-out: ATVmax: maximal activation% of the tested compounds relative to rosiglitazone
PPARγ = conditions: cited from earlier work
PPARγ2 = conditions: PPARγ2, U2OS reporter assay; cited from earlier work
[3] = HEK293 PPARγ1 reporter, 15% of rosiglitazone maximal response
[4] = HEK293 PPARγ1 reporter, 20% of rosiglitazone maximal response

Molecule | NOAEL (human PPARγ1 [1]) [µM] | ATVmax: maximal activation% of the tested compounds relative to rosiglitazone (human PPARγ1 [2]) [%] | EC15 (concentration inducing 15% activation) (human PPARγ1 [2]) [µM] | [ATVmax]: concentration of the tested compounds to induce the maximal activation% (human PPARγ1 [2]) [µM] | efficacy (qualitative, based on ATVmax) (human PPARγ1 [2]) | EC20 (concentration inducing 20% activation) (human PPARγ1 [2]) [µM] | other results
di-isopropylated triaryl phosphates [Di-ITP] | 1.2 | 16 | 3.25 | 3.6 | + (key: + 7–20%; ++ 20–30%; +++ 30–40%; ++++ 40–50%; +++++ >50%) | – | cell viability (in words) (HEK293 cells): Highly reduced cell viability
CC(C)COC(=O)c1ccccc1C(=O)OCC(C)C [DiBP, diisobutyl phthalate] | 0.4 | – | 4.47 | 33 | ++ (key: + 7–20%; ++ 20–30%; +++ 30–40%; ++++ 40–50%; +++++ >50%) | 11.1 | Emax (human PPARγ1 [2]): 25%
O=P(Oc1ccccc1)(Oc1ccccc1)Oc1ccccc1 [TPP, triphenyl phosphate] | 0.4 | 43 | 2.12 | 11 | ++++ (key: + 7–20%; ++ 20–30%; +++ 30–40%; ++++ 40–50%; +++++ >50%) | 3.27 | concentration at which the compound began to activate PPARγ1 (human PPARγ1 [2]): about 0.4 μM
[Cl][Sn]([c]1ccccc1)([c]1ccccc1)[c]1ccccc1 [TPT, triphenyltin chloride] | 0.0003 | 54 | 0.004 | 0.33 | +++++ (key: + 7–20%; ++ 20–30%; +++ 30–40%; ++++ 40–50%; +++++ >50%) | 0.01 | –
tri(2-butoxyethanol) phosphate [TBOEP] | – | 13 | – | 11 | + (key: + 7–20%; ++ 20–30%; +++ 30–40%; ++++ 40–50%; +++++ >50%) | – | PPARγ binding potency (in words) (PPARγ): significant binding potential at the highest dose level tested
Brc1ccc(Oc2ccc(Br)cc2Br)c(Br)c1 [BDE47, 2,2′,4,4′-tetrabromodiphenyl ether] | 0.8 | – | 5.2 | 7 | ++ (key: + 7–20%; ++ 20–30%; +++ 30–40%; ++++ 40–50%; +++++ >50%) | 7 | 5% induction concentration (PPARγ2): 10 µM; Emax (human PPARγ1 [2]): 20%
Oc1c(I)cc(I)cc1I [2,4,6-TIP, 2,4,6-triiodinated phenol] | 0.4 | 20 | 8.72 | 11 | ++ (key: + 7–20%; ++ 20–30%; +++ 30–40%; ++++ 40–50%; +++++ >50%) | 11 | –
CC(C)(C)c1ccc(OP(=O)(Oc2ccc(C(C)(C)C)cc2)Oc2ccc(C(C)(C)C)cc2)cc1 [TBPP, tris (4,tert-butyl-phenyl) phosphate] | 0.4 | 12 | – | 11 | + (key: + 7–20%; ++ 20–30%; +++ 30–40%; ++++ 40–50%; +++++ >50%) | – | –
tri-isopropylated triaryl phosphates [Tri-ITP] | 1.2 | 41 | 5.7 | 33 | ++++ (key: + 7–20%; ++ 20–30%; +++ 30–40%; ++++ 40–50%; +++++ >50%) | 7.76 | concentration at which the compound began to activate PPARγ1 (human PPARγ1 [2]): 1.2 µM
isopropylated triaryl phosphates (mixture) [ITP] | 1.2 | – | – | – | – | – | –
O=C(O)c1cc(Br)c(Br)c(Br)c1Br [TBBA, 2,3,4,5-tetrabromobenzoic acid (metabolite)] | 1.2 | 20 | 8.16 | – | ++ (key: + 7–20%; ++ 20–30%; +++ 30–40%; ++++ 40–50%; +++++ >50%) | 33 | –
Oc1c(Br)ccc(Oc2ccc(Br)cc2Br)c1Br [3-OH-BDE47, 3-hydroxide-2,2′,4,4′-tetrabromodiphenyl ether (metabolite)] | 0.8 | 42 | 2.01 | 7 | ++++ (key: + 7–20%; ++ 20–30%; +++ 30–40%; ++++ 40–50%; +++++ >50%) | 2.993 | PPARγ binding potency (in words) (PPARγ): comparable binding potency to rosiglitazone; concentration at which the compound began to activate PPARγ1 (human PPARγ1 [2]): 0.8 µM
Oc1c(Br)cc(Br)cc1Br [2,4,6-TBP, 2,4,6-tribrominated phenol] | 0.8 | 18 | 5.89 | 7 | + (key: + 7–20%; ++ 20–30%; +++ 30–40%; ++++ 40–50%; +++++ >50%) | – | –
CCCCC/C=C/C=C1/C(=O)C=C[C@@H]1C/C=C\CCCC(=O)O [15d-PJG2, 15-Deoxy-D12,14-prostaglandin J2 (endogenous ligands), reference compound] | 0.01 | 85 | 0.51 | 33 | +++++ (key: + 7–20%; ++ 20–30%; +++ 30–40%; ++++ 40–50%; +++++ >50%) | 0.74 | concentration at which the compound began to activate PPARγ1 (human PPARγ1 [2]): 0.01 µM
CN(CCOc1ccc(CC2SC(=O)NC2=O)cc1)c1ccccn1 (centres unmarked) [Rosi., rosiglitazone (positive control), reference compound] | – | – | – | – | – | – | NOAEL (human PPARγ1 [2]; HEK293 PPARγ1 reporter, nonobservable adverse effect level): 0.00001 µM
CCCCOC(=O)c1ccccc1C(=O)OCc1ccccc1 [BzBP, benzylbutyl phthalate] | 0.13 | 34 | 2.94 | 10 | +++ (key: + 7–20%; ++ 20–30%; +++ 30–40%; ++++ 40–50%; +++++ >50%) | 4.81 | –
c1ccc(OP(Oc2ccccc2)Oc2ccccc2)cc1 [TPPi, triphenyl phosphite] | 1.2 | – | – | – | – | – | –
tert-butyl phenyl diphenyl phosphate (mixture) [BPDP] | 0.4 | – | – | – | – | – | –
Oc1cc(Br)cc(Br)c1Oc1ccc(Br)cc1Br [6-OH-BDE47, 6-hydroxide-2,2′,4,4′-tetrabromodiphenyl ether (metabolite)] | – | <8 | – | – | – | – | PPARγ1 activation (in words) (human PPARγ1 [2]): no activation was observed
Oc1cc(Cl)ccc1Oc1ccc(Cl)cc1Cl [TCS, triclosan] | – | – | – | – | – | – | PPARγ binding potency (in words) (PPARγ): moderate binding potency; PPARγ1 activation (in words) (human PPARγ1 [2]): did not initiate any activation of PPARγ1; Emax (human PPARγ1 [2]): < 8%
CCCCOC(=O)c1ccccc1C(=O)OCCCC [DBP, dibutyl phthalate] | 0.4 | – | – | – | – | – | Emax (human PPARγ1 [2]): 23%; [ATVmax]: concentration of the tested compounds to induce the maximal activation% (human PPARγ1 [2]; HEK293 PPARγ1 reporter): 33 µM; efficacy (qualitative, based on ATVmax) (human PPARγ1 [2]; HEK293 PPARγ1 reporter): ++ (++ 20–30%); EC15 (concentration inducing 15% activation) (human PPARγ1 [2]; [3]): 6.73 µM; EC20 (concentration inducing 20% activation) (human PPARγ1 [2]; [4]): 13.6 µM
monoisopropylated triaryl phosphates [mono-ITP] | 1.2 | 15 | 3.6 | 3.6 | + (key: + 7–20%; ++ 20–30%; +++ 30–40%; ++++ 40–50%; +++++ >50%) | – | cell viability (in words) (HEK293 cells): Highly reduced cell viability
CC(C)(c1cc(Cl)c(O)c(Cl)c1)c1cc(Cl)c(O)c(Cl)c1 [TCBPA, 3,5,3′,5′-tetrachlorobisphenol A] | 0.09 | – | – | – | – | – | [ATVmax]: concentration of the tested compounds to induce the maximal activation% (human PPARγ1 [2]; HEK293 PPARγ1 reporter): 7 µM; efficacy (qualitative, based on ATVmax) (human PPARγ1 [2]; HEK293 PPARγ1 reporter): +++++ (+++++ >50%); EC15 (concentration inducing 15% activation) (human PPARγ1 [2]; [3]): 0.23 µM; EC20 (concentration inducing 20% activation) (human PPARγ1 [2]; [4]): 0.47 µM; ATVmax: maximal activation% of the tested compounds relative to rosiglitazone (human PPARγ1 [2]; HEK293 PPARγ1 reporter, normalized to maximal response of rosiglitazone): 52%
CCCCC(CC)COC(=O)c1ccccc1C(=O)OCC(CC)CCCC (centres unmarked) [DEHP, bis(2-ethylhexyl) phthalate] | – | – | – | – | – | – | PPARγ1 activation (in words) (human PPARγ1 [2]; reporter assay): no activation was observed
Firemaster 550 (mixture) [FM550] | 1.2 | – | – | – | – | – | –
CCCCC(CC)COC(=O)c1c(Br)c(Br)c(Br)c(Br)c1C(=O)O (centres unmarked) [TBMEHP, mono-(2-ethyhexyl) tetrabromophthalate (metabolite)] | 0.13 | 40 | 0.53 | 3.3 | ++++ (key: + 7–20%; ++ 20–30%; +++ 30–40%; ++++ 40–50%; +++++ >50%) | 0.78 | cell viability (in words) (HEK293 cells): reduced viability at higher dosing levels
CCCCC(CC)COC(=O)/C=C/C(=O)OCC(CC)CCCC (centres unmarked) [BEHF, bis(2-ethylhexyl) fumarate] | – | – | – | – | – | – | Emax (human PPARγ1 [2]): < 8%; PPARγ1 activation (in words) (human PPARγ1 [2]; reporter assay): did not display any obvious PPARγ1 activation
